Measured values from patent publication US10830762B2, “Compositions and methods for inducing conformational changes in cereblon and other E3 ubiquitin ligases” (Celgene Corporation, priority 2015, dated 2020).

How the values were obtained:
[1] = system: TMD8 (ABC) or Karpas 422 (GCB) cells; test: 3H-thymidine incorporation proliferation assay with lenalidomide co-treatment; type: cell-based; details: co-treatment with 10 μM lenalidomide; 3H-thymidine incorporation
[2] = system: H929 multiple myeloma cell line; test: Apoptosis in multiple myeloma cell line H929; type: cell-based; details: 0.01 nM to 1000 nM; assessed 24 hrs later
Method: The multiple myeloma cell line, H929, was cultured and treated with Compound C or other CMA analogs at various concentrations from 0.01 nM to 1000 nM. Apoptosis was assessed at 24 hrs. later.

[3] = system: panel of tumor cell lines (B-lymphoma, breast, CNS, colon, kidney, leukemia, lung, melanoma, multiple myeloma, ovary, prostate); test: Potency across a panel of tumor cell lines; type: cell-based
Method: The potency of Compound C was assessed across a panel of tumor cell lines, including B-lymphoma, breast, CNS, colon, kidney, leukemia, lung, melanoma, multiple myeloma, ovary and prostate.

[4] = system: DF15 / DF15R myeloma cells; test: Cell proliferation assay of DF15, DF15R and DF15R re-expressing CRBN treated with Compound C; type: cell-based
Method: (§1) Immunoblot analysis of extracts prepared from U266 multiple myeloma cells and pre-incubated with vehicle DMSO (D), Pomalidomide (Pom) or Compound C at the indicated concentrations, and bound to thalidomide analog affinity beads, washed and eluted with SDS buffer as previously described (Ito et al, 2010; Lopez-Girona et al, 2012). Samples were subjected to SDS-PAGE and immunoblot analysis using anti-CRBN 65-76 (1:10,000 dilution; Red signal) and anti-DDB1 (Cell Signaling) (1:2,000 dilution; Green signal). […] Cell proliferation assay of DF15 (sensitive), DF15R (resistant; CRBNnull) cells treated with a dose response of Compound C. Assays were done in triplicate and error bars represent s.d. Data for each cell line was normalized to treatment with vehicle (DMSO). […] Cell proliferation assay of DF15 (sensitive), DF15R (resistant; CRBNnull), DF15R-hCRBNWT (human CRBN), DF15R-RFP cells treated with a dose response of Compound C. […] Assays were done in triplicate and error bars represent s.d. Data for each cell line was normalized to treatment with vehicle (DMSO).

[5] = system: MDA-MB-231 breast cancer cells; test: Growth inhibition and pro-apoptotic activity in breast cancer cells treated with CRBN siRNA; type: cell-based; details: CRBN siRNA vs negative control
Method: Breast cancer cells (MDA-MB-231) were treated with CRBN siRNA or a negative control. Compound C was added at a concentration between 0 to 100 μM, and CRBN levels were assessed at 48 hours post treatment.
Compound C-mediated growth inhibition and pro-apoptotic activity were also assessed.

human GSPT1 [6] = molecular target: T1, human GSPT1 (Homo sapiens, UniProt P15170); test: Compound-induced GSPT1 degradation by Western blot in 293T HEK cells; type: cell-based; details: full-length and truncated (lacking N-terminal 138 residues) GSPT1
T1 construct: expressed in transfected cells; host or cells: 293T HEK cells
Source text: (§2) FIG. 28A illustrates a full-length human GSPT1 and a truncated mutant form, which lacks the N-terminal 138 amino acid residues. […] Thus, the truncated mutant human GSPT1 maintained the functionality of the full-length protein and can be used in studies below.
(§3) To determine the critical region in the human GSPT1 that contributes to the Compound C-induced degradation, a plethora of chimeric constructs containing various domains of human GSPT1 and yeast SUP35 were generated (FIG. 30A). These recombinant proteins were tested for Compound C-induced degradation by Western blot (FIGS. 30B-30D). As the results shown, a 32-amino acid fragment in the C-terminus of human GSPT1 (residues 562-593) is critical for Compound C-induced degradation.
(§4) To further map the essential amino acid residues in this 32-amino acid fragment of human GSPT1, various point mutations within the fragment were generated and tested for Compound C-induced degradation of GSPT1 and Compound C-induced interaction between CRBN and GSPT1. […] Among these homologues, only the yeast SUP35 is resistant to Compound C. […] Other mutations, […].

human GSPT1 [7] = molecular target: T2, human GSPT1 (Homo sapiens, UniProt P15170, G437N); test: as above; type: cell-based; details: GSPT1 G575N mutation
T2 construct: expressed in transfected cells; host or cells: 293T HEK cells
Source text: as §2, §3, §4

yeast homologue SUP35 = yeast homologue SUP35 (Saccharomyces cerevisiae, UniProt P05453); test: Compound-induced degradation of yeast homologue SUP35; type: cell-based; details: yeast SUP35, in contrast to human GSPT1
CRBN-GSPT1 = test: Compound-induced interaction (in vitro binding) of CRBN with GSPT1; parameters: species or system human
Source text: as §2, §4

[8] = system: human GSPT1 (G575N mutation); test: Growth inhibition and activation of ATF4 and apoptosis pathways with GSPT1 G575N mutation; type: cell-based
IKZF1 = molecular target: T3, IKZF1 (Homo sapiens, UniProt Q13422+Q96SW2); test: IKZF1 degradation in HEK293T cells co-transfected with wild-type or mutant CRBN; type: cell-based
T3 construct: expressed in transfected cells; host or cells: HEK293T cells

GSPT1 [9] = molecular target: T4, GSPT1 (Homo sapiens, UniProt P15170+Q96SW2); test: GSPT1 degradation in HEK293T cells transfected with wild-type or mutant CRBN; type: cell-based; details: murine CRBN V377E
T4 construct: endogenous in cells; host or cells: HEK293T cells
Source text: (§5) A key feature of immunomodulatory drug biology is the striking resistance observed in rodent species. This feature was historically a confounding factor in establishing the efficacy and safety risks associated with thalidomide. It was shown that, in contrast to human cereblon, murine cereblon is unable to rescue immunomodulatory drug sensitivity. Chamberlain et al., Nature structural & mole. biol. 2014, 21:803-809. It was proposed that the molecular basis for this would lie in two variable residues on the cereblon surface proximal to the tri-Tryp pocket, E377V and V388I. […] Kronke et al., Nature 2015, 523:183-188. Despite the potent effect seen on human cells, murine cells are resistant to the antiproliferative and pro-apoptotic effects of Compound C (data not shown). […] The dependence of GSPT1 degradation upon E377 can be rationalized by the crystal structure: the side chain of E377 mediates hydrogen bond interactions with the urea moiety of Compound C.

GSPT1 [10] = molecular target: T5, GSPT1 (Homo sapiens, UniProt P15170+Q96SW2, E377V/V100A); test: as above; type: cell-based; details: human CRBN E377V
T5 construct: endogenous in cells; host or cells: HEK293T cells
Source text: as §5

GSPT1 [11] = molecular target: T6, GSPT1 (Homo sapiens, UniProt P15170+Q96SW2, V100A); test: as above; type: cell-based; details: human WT CRBN
T6 construct: endogenous in cells; host or cells: HEK293T cells
Source text: as §5

GSPT1 [12] = molecular target: T7, GSPT1 (Homo sapiens, UniProt P15170+Q96SW2, V100A/V388I); test: as above; type: cell-based; details: human CRBN V388I
T7 construct: endogenous in cells; host or cells: HEK293T cells
Source text: as §5

murine cells = test: Antiproliferative and pro-apoptotic effects on murine cells; type: cell-based; details: murine cells (data not shown)
Source text: as §5

CRBN = CRBN (Homo sapiens, UniProt Q96SW2); test: Thalidomide analog affinity bead competition assay in U266 cell extracts; type: binding; parameters: endogenous in cells; host or cells: U266 multiple myeloma cells (extract); details: competition with thalidomide analog affinity beads
Method: as §1
Coupling of thalidomide analog to FG-magnetic nanoparticle beads (Tamagawa Seiko Co. Tokyo, Japan) was carried out as described (Ito et al., Science, 2010. 327(5971):1345-50), and cell extract binding assays to these beads were performed with minor modifications. […]

`Cc1ccc(NC(=O)NCc2ccc3c(c2)CN(C2CCC(=O)NC2=O)C3=O)cc1Cl` (stereo not drawn) [Compound C, 1-(3-chloro-4-methylphenyl)-3-((2-(2,6-dioxopiperidin-3-yl)-1-oxoisoindolin-5-yl)methyl)urea] was tested, and the “anti-proliferative effects on co-treatment with lenalidomide” value [1] was “blocks anti-proliferative effects”, the early apoptosis [2] was “induced early apoptosis” and the “Therapeutic Index” value ([3]; across the cancer cell panel) was “overall low Therapeutic Index”. For the same compound, the “potency / activity in tumor cell lines” value ([3]; panel of tumor cell lines) was “potent across a panel of tumor lines”, the “CRBN dependence of anti-proliferative activity” value ([4]; DF15 (sensitive) vs DF15R (CRBN null)) was “CRBN is required for the anti-proliferative activity” and the “anti-proliferative activity after re-expression of human CRBN” value ([4]; DF15R-hCRBNWT) was “rescues Compound C anti-proliferative activity”. The “CRBN dependence of growth inhibition and pro-apoptotic activity” value [5] was “CRBN is required for both inhibition and pro-apoptotic activity”, the GSPT1 degradation (human GSPT1 [6]) was “induced degradation of the full-length GSPT1 and the truncated form” and the GSPT1 degradation (human GSPT1 [7]) was “blocked Compound C-induced degradation”. The SUP35 degradation (yeast homologue SUP35) was “did not exhibit Compound C-induced degradation”, the “interaction between CRBN and GSPT1” value (CRBN-GSPT1; GSPT1 G575N mutation) was “blocked Compound C-induced interaction between CRBN and GSPT1” and the “interaction of CRBN with GSPT1” value (CRBN-GSPT1; full-length and truncated GSPT1) was “induced interaction of CRBN with the full-length GSPT1 as well as the truncated GSPT1”. For the same compound, the “growth inhibition and downstream activation of ATF4 and apoptosis pathways” value [8] was “blocked Compound C-induced growth inhibition and Compound C-induced downstream activation of ATF4 and apoptosis pathways”, the IKZF1 degradation (IKZF1; human CRBN V388I) was “blocks the degradation of IKZF1” and the IKZF1 degradation (IKZF1; human WT CRBN) was “degradation of both IKZF1 and GSPT1”. The GSPT1 degradation (GSPT1 [9]) was “restores GSPT1 degradation”, the GSPT1 degradation (GSPT1 [10]) was “blocks the degradation of GSPT1” and the GSPT1 degradation (GSPT1 [11]) was “degradation of both IKZF1 and GSPT1”. For the same compound, the GSPT1 degradation (GSPT1 [12]) was “maintained”, the “antiproliferative and pro-apoptotic effects” value (murine cells) was “resistant” and the “binding to CRBN protein in MM cell extracts” value (CRBN) was “binds CRBN protein”.
